From article PMC8491401, “Phytochemical analysis, antioxidant and in vitro β-galactosidase inhibition activities of Juniperus phoenicea and Calicotome villosa methanolic extracts” (BMC Chemistry, 2021)
Like-named read-outs stand apart in the source and are kept apart here.

Key:
[1] = target: T1, β-Galactosidase from Aspergillus oryzae (Aspergillus oryzae, UniProt Q2UCU3); experiment: ONPG hydrolysis, absorbance at […] nm; format: biochemical
T1 construct: gene lacA; commercial enzyme from Sigma-Aldrich, secreted fungal enzyme; construct details not given
T1 sequence (Q2UCU3 19-1005): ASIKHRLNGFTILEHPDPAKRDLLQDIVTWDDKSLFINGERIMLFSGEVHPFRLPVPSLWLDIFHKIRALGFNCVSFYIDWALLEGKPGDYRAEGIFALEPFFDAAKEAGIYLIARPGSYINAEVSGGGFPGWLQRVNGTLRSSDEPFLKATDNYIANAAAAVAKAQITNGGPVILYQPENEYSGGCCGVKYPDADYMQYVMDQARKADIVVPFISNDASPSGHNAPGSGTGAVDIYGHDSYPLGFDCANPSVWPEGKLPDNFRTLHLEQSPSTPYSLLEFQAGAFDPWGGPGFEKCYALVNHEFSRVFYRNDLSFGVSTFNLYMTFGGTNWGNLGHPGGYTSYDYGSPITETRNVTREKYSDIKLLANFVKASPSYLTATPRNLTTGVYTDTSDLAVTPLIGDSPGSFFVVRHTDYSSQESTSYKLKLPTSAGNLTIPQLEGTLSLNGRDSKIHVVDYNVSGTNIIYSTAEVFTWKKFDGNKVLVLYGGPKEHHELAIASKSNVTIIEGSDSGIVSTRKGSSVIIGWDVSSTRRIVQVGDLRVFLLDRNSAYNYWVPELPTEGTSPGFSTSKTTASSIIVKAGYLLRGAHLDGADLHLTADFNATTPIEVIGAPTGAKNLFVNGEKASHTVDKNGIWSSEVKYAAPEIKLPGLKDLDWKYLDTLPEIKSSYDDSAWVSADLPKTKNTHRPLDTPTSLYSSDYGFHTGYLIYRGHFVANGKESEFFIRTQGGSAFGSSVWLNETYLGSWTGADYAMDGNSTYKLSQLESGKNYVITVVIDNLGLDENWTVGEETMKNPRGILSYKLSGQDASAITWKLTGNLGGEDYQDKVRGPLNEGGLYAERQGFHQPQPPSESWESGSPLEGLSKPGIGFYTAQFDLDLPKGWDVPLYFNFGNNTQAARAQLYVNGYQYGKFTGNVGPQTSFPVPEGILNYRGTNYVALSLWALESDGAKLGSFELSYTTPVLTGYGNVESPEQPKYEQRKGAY

[2] = target: T1, β-Galactosidase from Aspergillus oryzae; experiment: Lineweaver-Burk, ONPG hydrolysis; format: biochemical; details: pH 4.5, 30 °C, mixed, read-out: Ki (mg/ml) (converted)
Excerpt: Lineweaver-Burk, ONPG hydrolysis on β-Galactosidase from Aspergillus oryzae

[3] = substrate: O=[N+]([O-])c1ccccc1O[C@@H]1O[C@H](CO)[C@H](O)[C@H](O)[C@H]1O; experiment: Lineweaver-Burk, ONPG hydrolysis; format: biochemical, Aspergillus oryzae; details: pH 4.5, 30 °C, no inhibitor
Excerpt: Lineweaver-Burk, ONPG hydrolysis on β-Galactosidase from Aspergillus oryzae | Km and Vmax were obtained by a typical double reciprocal Lineweaver Burk plot

Molecule `OC[C@H]1OC(O)[C@H](O)[C@@H](O)[C@H]1O` (stereo partly shown) [Galactose] has an IC50 ([1]; ONPG 20 µmol in 4 ml, 0.1 M citrate-phosphate pH 4.5, 30 °C, mixed) of 3.33 mM and a Ki [2] of 10.4 mM.

Molecule `C[C@@H]1O[C@@H](OC[C@H]2O[C@@H](Oc3c(-c4ccc(O)c(O)c4)oc4cc(O)cc(O)c4c3=O)[C@H](O)[C@@H](O)[C@@H]2O)[C@H](O)[C@H](O)[C@H]1O` [Rutin] has an IC50 [1] of 0.123 mM.

B1: β-Galactosidase from Aspergillus oryzae (Aspergillus oryzae RIB40) (protein)
chain: ASIKHRLNGFTILEHPDPAKRDLLQDIVTWDDKSLFINGERIMLFSGEVHPFRLPVPSLWLDIFHKIRALGFNCVSFYIDWALLEGKPGDYRAEGIFALEPFFDAAKEAGIYLIARPGSYINAEVSGGGFPGWLQRVNGTLRSSDEPFLKATDNYIANAAAAVAKAQITNGGPVILYQPENEYSGGCCGVKYPDADYMQYVMDQARKADIVVPFISNDASPSGHNAPGSGTGAVDIYGHDSYPLGFDCANPSVWPEGKLPDNFRTLHLEQSPSTPYSLLEFQAGAFDPWGGPGFEKCYALVNHEFSRVFYRNDLSFGVSTFNLYMTFGGTNWGNLGHPGGYTSYDYGSPITETRNVTREKYSDIKLLANFVKASPSYLTATPRNLTTGVYTDTSDLAVTPLIGDSPGSFFVVRHTDYSSQESTSYKLKLPTSAGNLTIPQLEGTLSLNGRDSKIHVVDYNVSGTNIIYSTAEVFTWKKFDGNKVLVLYGGPKEHHELAIASKSNVTIIEGSDSGIVSTRKGSSVIIGWDVSSTRRIVQVGDLRVFLLDRNSAYNYWVPELPTEGTSPGFSTSKTTASSIIVKAGYLLRGAHLDGADLHLTADFNATTPIEVIGAPTGAKNLFVNGEKASHTVDKNGIWSSEVKYAAPEIKLPGLKDLDWKYLDTLPEIKSSYDDSAWVSADLPKTKNTHRPLDTPTSLYSSDYGFHTGYLIYRGHFVANGKESEFFIRTQGGSAFGSSVWLNETYLGSWTGADYAMDGNSTYKLSQLESGKNYVITVVIDNLGLDENWTVGEETMKNPRGILSYKLSGQDASAITWKLTGNLGGEDYQDKVRGPLNEGGLYAERQGFHQPQPPSESWESGSPLEGLSKPGIGFYTAQFDLDLPKGWDVPLYFNFGNNTQAARAQLYVNGYQYGKFTGNVGPQTSFPVPEGILNYRGTNYVALSLWALESDGAKLGSFELSYTTPVLTGYGNVESPEQPKYEQRKGAY
notes: commercial enzyme from Sigma-Aldrich, secreted fungal enzyme; construct details not given
In the case of B1, the Km [3] is reported as 1310 ± 91 µM.
